How the values were obtained:
In vivo toxicity study = settings: 2.5 mg/kg every other day for 12 days, HCT116 xenograft mice; PMI-Au SNH intraperitoneally, intravenously or intragastrically
Procedure: To evaluate the toxicity of PMI-Au SNH including the nephrotoxicity in vivo, we carried out a comprehensive toxicity study using the subcutaneous xenograft model of HCT116 tumors from efficacy studies. PMI-Au SNH was intraperitoneally, intravenously or intragastrically injected, every other day for a duration of 12 days, at a dose of 2.5 mg/kg, with saline, ^ctrlPMI-Au SNH and DOX as controls. […] The safety of both PMI-Au SNH and ^ctrlPMI-Au SNH and toxicity of DOX were further confirmed by changes, or lack thereof, in the function of the liver and kidney (Figure 9A-G), in the weight and H&E staining of spleen (Figure 9H-I) and in the number of white blood cells and thrombocytes (Figure S11). Moreover, heart function (Figure S12), the level of red blood cells (Figure S13) and the histological H&E staining of lung (Figure S14) supported the above findings and the conclusion that PMI-Au SNH is sufficiently safe with a significant therapeutic potential. […]
intense staining. […]
To assess potential toxicities of repeatedly infusing PMI-Au SNH, we monitored body weight of all mice over the course of treatment and measured hematological indexes as well as organ function indexes after 13- day treatment. […]

chymotrypsin = experiment: Proteolysis resistance to chymotrypsin by HPLC; type: in vitro ADME; settings: chymotrypsin with 10% serum in PBS, PBS containing 10 mM oxidized glutathione, 0.5 mg/ml chymotrypsin, read-out: t1/2 of proteolysis (converted)
Procedure: Figure 3 The colloidal peptide-auric SNH is stable and proteolytically resistant. (A) The physicochemical properties of the three peptide and the schematic diagram of three peptide-Auric SNH. (B-D) The dimensional change of Pep-AuNPs and Pep-Au SNH with time in PBS (pH7.4) or PBS including 20% FBS and 50 µM GSH to simulate extracellular physiological environment. (E-G) Proteolysis resistance of Pep-SH, Pep-AuNPs and Pep-Au SNH under PBS containing 10 mM oxidized glutathione, 10% serum, and 0.5 mg/ml chymotrypsin.
Linear peptides are conformationally disordered in aqueous solutions under their own steam and, consequently, tendentious to proteolysis. Conjugation of peptides with nanoparticles would improve steric hindrance against peptidase, resulting in the resistance to proteolysis, [44]. We comparatively quantified the susceptibility of Pep-AuNPs and Pep-Au SNH to chymotrypsin using HPLC (Figure 3E-G).
Fi g u re S 9. (A) The dimensional change of PMI- Au SNH with time in PBS or PBS including 20%
FBS and 50μM GSH at pH 7.4 or 4.0 to simulate extracellular physiological environment. ( B)
Proteolysis resistance of Pep-Au SNH under PBS at pH 7.4 or 4.0 containing 10 mM oxidized
glutathione, 10% serum, and 0.5 mg/ml chymotrypsin. (C) ICP- MS quantification of gold content
(from PMI- Au SNH) in stomach, colon and blood collected from health c57/b6 mice. The data […]

SMILES | body weight change (In vivo toxicity study) | half-life (chymotrypsin)
COc1cccc2c1C(=O)c1c(O)c3c(c(O)c1C2=O)C[C@@](O)(C(=O)CO)C[C@@H]3O[C@H]1C[C@H](N)[C@H](O)[C@H](C)O1 [DOX, doxorubicin] | significant loss of body weight | –
CC(=O)N[C@H](C(=O)N[C@@H](CO)C(=O)N[C@@H](Cc1ccccc1)C(=O)N[C@@H](C)C(=O)N[C@@H](CCC(=O)O)C(=O)N[C@@H](Cc1ccc(O)cc1)C(=O)N[C@@H](Cc1c[nH]c2ccccc12)C(=O)N[C@@H](C)C(=O)N[C@@H](CC(C)C)C(=O)N[C@@H](CC(C)C)C(=O)N[C@@H](CO)C(=O)N1CCC[C@H]1C(=O)N[C@@H](CS)C(=O)O)[C@@H](C)O [PMI-SH] | – | 9 ± 0.6 min

From publication PMC7392018, “A general-purpose Nanohybrid fabricated by Polymeric Au(I)-peptide precursor to wake the function of Peptide Therapeutics” (Theranostics, 2020)
